# Assay results reported in ChEMBL document CHEMBL2046382, “Synthesis, biological evaluation of 5-carbomethoxymethyl-7-hydroxy-2-pentylchromone, 5-carboethoxymethyl-4',7-dihydroxyflavone and their analogues” (Bioorg Med Chem Lett, 2012).
# The source made the active and inactive calls. No cut-off for these calls is given here.
# What was measured:
# [1] = system: Staphylococcus aureus; experiment: Antibacterial activity against Staphylococcus aureus MTCC 2940 at 80 ug/ml by modified microtiter broth dilution method; type: functional, organism-based
# [2] = system: Bacillus subtilis; experiment: Antibacterial activity against Bacillus subtilis MTCC 121 by modified microtiter broth dilution method; type: functional
# [3] = system: Staphylococcus aureus; experiment: Antibacterial activity against Staphylococcus aureus MTCC 96 by modified microtiter broth dilution method; type: functional
# [4] = system: Micrococcus luteus; experiment: Antibacterial activity against Micrococcus luteus MTCC 2470 at 80 ug/ml by modified microtiter broth dilution method; type: functional, organism-based
# [5] = system: Raoultella planticola; experiment: Antibacterial activity against Klebsiella planticola MTCC 530 by modified microtiter broth dilution method; type: functional
# [6] = system: Escherichia coli; experiment: Antibacterial activity against Escherichia coli MTCC 739 at 80 ug/ml by modified microtiter broth dilution method; type: functional, organism-based
# [7] = system: Pseudomonas aeruginosa; experiment: Antibacterial activity against Pseudomonas aeruginosa MTCC 2453 at 80 ug/ml by modified microtiter broth dilution method; type: functional, organism-based
# [8] = system: Radical scavenging activity; experiment: Antioxidant activity assessed as DPPH free radical scavenging activity after 48 hrs; type: functional
# [9] = Antioxidant activity assessed as superoxide radical scavenging activity after 48 hrs; type: functional
# [10] = Antioxidant activity of the compound assessed as inhibition of lipid peroxidation after 48 hrs; type: functional
# [11] = system: Erythrocyte; experiment: Antioxidant activity in erythrocytes assessed as inhibition of hemolysis after 48 hrs; type: functional, cell-based
# [12] = Chemical stability of the compound in antioxidant reaction; type: physicochemical
# [13] = system: NCI60; experiment: Cytotoxicity against human NCI60 cells; type: functional, cell-based
# [14] = system: Staphylococcus aureus; experiment: Antibacterial activity against Staphylococcus aureus MTCC 2940 by modified microtiter broth dilution method; type: functional
# [15] = system: Staphylococcus aureus; experiment: Antibacterial activity against Staphylococcus aureus MTCC 96 at 80 ug/ml by modified microtiter broth dilution method; type: functional, organism-based
# [16] = system: Micrococcus luteus; experiment: Antibacterial activity against Micrococcus luteus MTCC 2470 by modified microtiter broth dilution method; type: functional
# [17] = system: Candida albicans; experiment: Antifungal activity against Candida albicans MTCC 3958 by well diffusion method; type: functional
# [18] = system: Candida albicans; experiment: Antifungal activity against Candida albicans MTCC 4748 by well diffusion method; type: functional
# [19] = system: Candida albicans; experiment: Antifungal activity against Candida albicans MTCC 7315 by well diffusion method; type: functional
# [20] = system: Candida albicans; experiment: Antifungal activity against Candida albicans MTCC 854 by well diffusion method; type: functional
# [21] = system: Candida parapsilosis; experiment: Antifungal activity against Candida parapsilosis MTCC 1744 by well diffusion method; type: functional; details: Lodderomyces parapsilosis
# [22] = system: Candida parapsilosis; experiment: Antifungal activity against Candida parapsilosis MTCC 3018 by well diffusion method; type: functional; details: Lodderomyces parapsilosis
# [23] = system: Candida albicans; experiment: Antifungal activity against Candida albicans MTCC 1637 by well diffusion method; type: functional
# [24] = system: Nakaseomyces glabratus; experiment: Antifungal activity against Candida glabrata MTCC 3019 by well diffusion method; type: functional
# [25] = system: Candida albicans; experiment: Antifungal activity against Candida albicans MTCC 227 by well diffusion method; type: functional
# [26] = system: Candida albicans; experiment: Antifungal activity against Candida albicans MTCC 183 by well diffusion method; type: functional
# [27] = system: Candida albicans; experiment: Antifungal activity against Candida albicans MTCC 3017 by well diffusion method; type: functional
# [28] = system: Pichia kudriavzevii; experiment: Antifungal activity against Issatchenkia orientalis MTCC 3020 by well diffusion method; type: functional
# [29] = system: Radical scavenging activity; experiment: Antioxidant activity assessed as DPPH free radical scavenging activity; type: functional
# [30] = Antioxidant activity assessed as superoxide radical scavenging activity; type: functional
# [31] = Antioxidant activity of the compound assessed as inhibition of lipid peroxidation; type: functional
# [32] = Antioxidant activity in erythrocytes assessed as inhibition of hemolysis; type: functional, cell-based; details: erythrocyte
Compound,MIC [2] [µg/mL],MIC [5] [µg/mL],Activity [6],Activity [7],MIC [17] [µg/mL],MIC [18] [µg/mL],MIC [19] [µg/mL],MIC [20] [µg/mL],MIC [21] [µg/mL],MIC [22] [µg/mL],MIC [23],MIC [24],MIC [25],MIC [26],MIC [27],MIC [28],other results
COC(=O)Cc1cc(O)cc2oc(-c3ccc(OC)c(OC)c3)cc(=O)c12,9,18,inactive,inactive,–,–,–,–,–,–,–,–,–,–,–,–,Activity [1]: inactive; MIC [3]: 37 µg/mL; Activity [4]: inactive; Activity [8]: inactive; Activity [9]: inactive; Activity [10]: inactive; Activity [11]: inactive; Stability [12]: Unstable; Activity [13]: inactive
COC(=O)Cc1cc(O)cc2oc(-c3ccc(Cl)c(F)c3)cc(=O)c12,75,37,inactive,inactive,4,4,9,9,9,9,inactive,inactive,inactive,inactive,inactive,inactive,MIC [14]: 18 µg/mL; Activity [15]: inactive; MIC [16]: 18 µg/mL; EC50 [29]: 61.66 µg/mL; EC50 [30]: 60.92 µg/mL; EC50 [31]: Not Active; EC50 [32]: Not Active
OC(Cn1cncn1)(Cn1cncn1)c1ccc(F)cc1F [FLUCONAZOLE],–,–,–,–,64,32,32,32,16,16,32 µg/mL,64 µg/mL,32 µg/mL,32 µg/mL,64 µg/mL,128 µg/mL,–
